Experiment in all cases: in vitro antifungal MIC, two-fold serial dilution
One assay relates to C. aibicans 2402E. The format is cell-based, Candida albicans. On the procedure:
(§1) The in vitro evaluation of the anti-fungal activity of compounds of the invention was performed on liquid or solid medium by the anti-fungal two-fold serial dilution technique of determining the minimum inhibitory concentration (MIC) of anti-fungal agent that inhibited development of growth after 24 to 48 hours of incubation at 37° C. In practice, a series of agar plates or broth microdilution panels containing two-fold dilutions of anti-fungal agent tested were inoculated with a standard culture of a clinically relevant pathogen, for example, Candida albicans. The agar plates or broth microdulution panels were then examined for the presence or absence of growth of the fungus and the appropriate MIC values were noted.
(§2) Compounds of formula (I) have been tested for anti fungal activity in a standard in vitro screen and the minimum inhibiting concentration (MIC; μg/ml) determined for each compound against a variety of clinically relevant pathogens.

In another assay the test system is C. albicans 1208E. The format is cell-based, Candida albicans. On the procedure:
as §1, §2

A further assay deals with C. albicans 2005E. The format is cell-based, Candida albicans. On the procedure: as §1, §2
A further assay concerns C. albicans 4711. The format is cell-based, Candida albicans. Here is the method:
as §1, §2

The next assay concerns C. tropicalis 2808E. The format is cell-based, Candida tropicalis. On the procedure: as §1, §2
Assay [1] deals with C. psuedotropicalis 2371E. The format is cell-based, Candida pseudotropicalis. Here is the method:
as §1, §2

The next assay concerns C. glabrata 2375E. The format is cell-based, Candida glabrata. Here is the method:
as §1, §2

The next assay relates to C. glabrata 2376E. The format is cell-based, Candida glabrata. Here is the method:
as §1, §2

A further assay has as its system C. neoformans 2867E. The format is cell-based, Cryptococcus neoformans. On the procedure:
as §1, §2

Nine molecules from patent publication US5854280A, “Antifungal sordaridin derivatives” (Glaxo Wellcome S.A., priority 1994, dated 1998) can be followed below.

In brackets after ≈: the same amount, converted by molar mass.

Turning to `CC(C)C1=CC2CC3(C=O)C4CCC(C)C4CC2(COC2OC(C)C4OC(C)(C)OC4C2O)C13C(=O)O` [Example 1, [1R-(1α,3aβ,4β,4aβ,7β,7aα,8aβ)]8a-[(6-Deoxy-3,4-O-isopropylidene-β-D-altropyranosyloxy)methyl]-4-formyl-4,4a,5,6,7,7a,8,8a-octahydro-7-methyl-3-(1-methylethyl)-1,4-methano-s-indacene-3a(1H)-carboxylic acid], the “MIC (minimum inhibiting concentration)” value in the assay with C. aibicans 2402E was found to be 0.500 µg/mL (≈ 0.964 µM); in the assay with C. albicans 1208E, 0.500 µg/mL (≈ 0.964 µM); with C. albicans 2005E, 0.120 µg/mL (≈ 0.231 µM); in the assay with C. albicans 4711, 0.280 µg/mL (≈ 0.54 µM); in the assay on C. tropicalis 2808E it was 1.000 µg/mL (≈ 1.93 µM); in assay [1] it was 0.060 µg/mL (≈ 0.116 µM). Also, the “MIC (minimum inhibiting concentration)” value is 31.00 µg/mL (≈ 59.8 µM) against C. glabrata 2375E, 31.00 µg/mL (≈ 59.8 µM) in the assay with C. glabrata 2376E and more than 125 µg/mL against C. neoformans 2867E.
Turning to `CC(C)C1=CC2CC3(C=O)C4CCC(C)C4CC2(COC2CC4OC(C)(C)OC4C(C)O2)C13C(=O)O` [Example 6, [1R-(1α,3aβ,4β,4aβ,7β,7aα,8aβ)]8a-[(2,6-Dideoxy-3,4-O-isopropylidene-β-D-allopyranosyloxy)methyl]-4-formyl-4,4a,5,6,7,7a,8,8a-octahydro-7-methyl-3-(1-methylethyl)-4-methano-s-indacene-3a(1H)-carboxylic acid], the “MIC (minimum inhibiting concentration)” value was 0.008 µg/mL (≈ 0.0159 µM) in the assay with C. aibicans 2402E; 0.008 µg/mL (≈ 0.0159 µM) in the assay on C. albicans 1208E; 0.001 µg/mL (≈ 0.00199 µM) against C. albicans 2005E; 0.004 µg/mL (≈ 0.00796 µM) with C. albicans 4711; 0.120 µg/mL (≈ 0.239 µM) against C. tropicalis 2808E; 0.004 µg/mL (≈ 0.00796 µM) in assay [1]. In addition, the “MIC (minimum inhibiting concentration)” value with C. glabrata 2375E is 31.00 µg/mL (≈ 61.7 µM); against C. glabrata 2376E, 31.00 µg/mL (≈ 61.7 µM); in the assay on C. neoformans 2867E, 8.00 µg/mL (≈ 15.9 µM).
Consider `CC(C)C1=CC2CC3(C=O)C4CCC(C)C4CC2(COC2CC4OCOC4C(C)O2)C13C(=O)[O-].[Na+]` (stereo not drawn) [Example 13], for which the “MIC (minimum inhibiting concentration)” value came out at 0.015 µg/mL against C. aibicans 2402E; 0.015 µg/mL against C. albicans 1208E; 0.008 µg/mL in the assay with C. albicans 2005E; 0.015 µg/mL in the assay with C. albicans 4711; 0.120 µg/mL in the assay on C. tropicalis 2808E; 0.008 µg/mL in [1]. For the same molecule, the “MIC (minimum inhibiting concentration)” value with C. glabrata 2375E was found to be 8.00 µg/mL; against C. glabrata 2376E it was 8.00 µg/mL; in the assay with C. neoformans 2867E, 0.500 µg/mL.
Regarding `CC(C)C1=CC2CC3(C=O)C4CCC(C)C4CC2(COC2CC4OCC(C)C4C(C)O2)C13C(=O)O` [Example 16, [1R-(1α,3aβ,4β,4aβ,7β,7aα,8aβ)]8a-[[1S,4S,6R,8R]-2,7-Dioxa-4,6-dimethyl-cis-bicyclo[3.4.0]-non-8-yl-oxy-methyl]-4-formyl-4,4a,5,6,7,7a,8,8a-octahydro-7-methyl-3-(1-methylethyl)-1,4-methano-s-indacene-3a(1H)-carboxylic acid], the “MIC (minimum inhibiting concentration)” value with C. aibicans 2402E is 0.001 µg/mL (≈ 0.00205 µM); in the assay with C. albicans 1208E it was 0.001 µg/mL (≈ 0.00205 µM); in the assay with C. albicans 2005E, 0.001 µg/mL (≈ 0.00205 µM); in the assay on C. albicans 4711, 0.001 µg/mL (≈ 0.00205 µM); against C. tropicalis 2808E, 0.008 µg/mL (≈ 0.0164 µM); in assay [1], less than 0.001 µg/mL. Further, the “MIC (minimum inhibiting concentration)” value against C. glabrata 2375E was 8.00 µg/mL (≈ 16.4 µM); in the assay with C. glabrata 2376E, 8.00 µg/mL (≈ 16.4 µM); with C. neoformans 2867E it was 1.00 µg/mL (≈ 2.05 µM).
`CC(C)C1=CC2CC3(C=O)C4CCC(C)C4CC2(COC2CC4C(C)COC4C(C)O2)C13C(=O)[O-].[Na+]` [Example 20, [1R-(1α,3aβ,4β,4aβ,7β,7aα,8aβ)]8a-[[1S,4R,7R,9R]-2,8-Dioxa-4,9-dimethyl-cis-bicyclo[3.4.0]-7-yl-oxy-methyl]-4-formyl-4,4a,5,6,7,7a,8,8a-octahydro-7-methyl-3-(1-methylethyl)-1,4-methano-s-indacene-3a(1H)-carboxylic acid, sodium salt]: the “MIC (minimum inhibiting concentration)” value against C. aibicans 2402E is not above 0.001 µg/mL; with C. albicans 1208E, not above 0.001 µg/mL; in the assay with C. albicans 2005E, not above 0.001 µg/mL; against C. albicans 4711, not above 0.001 µg/mL; against C. tropicalis 2808E it was 0.008 µg/mL; in [1] it was 0.004 µg/mL. In addition, the “MIC (minimum inhibiting concentration)” value in the assay on C. glabrata 2375E amounted to 0.500 µg/mL; in the assay on C. glabrata 2376E it was 0.500 µg/mL; in the assay with C. neoformans 2867E, 0.250 µg/mL.
Take `C=C1COC2C(C)OC(OCC34CC5C(C)CCC5C5(C=O)CC3C=C(C(C)C)C54C(=O)[O-])CC12.[Na+]` [Example 34, [1R-(1α,3aβ,4β,4aβ,7β,7aα,8aβ)]8a-[[1S,7R,9R]-2,8-Dioxa-9-methyl-4-methylene-cis-bicyclo[3.4.0]-non-7-yl-oxy-methyl]-4-formyl-4,4a, 5,6,7,7a,8,8a-octahydro-7-methyl-3-(1-methylethyl)-1,4-methano-s-indacene-3a(1H)-carboxylic acid, sodium salt]: the “MIC (minimum inhibiting concentration)” value in the assay on C. aibicans 2402E was 0.001 µg/mL; with C. albicans 1208E, 0.001 µg/mL; against C. albicans 2005E it was 0.001 µg/mL; in the assay with C. albicans 4711, 0.001 µg/mL; in the assay with C. tropicalis 2808E, 0.150 µg/mL; in [1], not above 0.001 µg/mL. For the same molecule, the entries for the “MIC (minimum inhibiting concentration)” value with C. glabrata 2375E, with C. glabrata 2376E and with C. neoformans 2867E were 1.000 µg/mL, 1.000 µg/mL and not above 0.250 µg/mL, respectively.
As to `CC(C)C1=CC2CC3(C=O)C4CCC(C)C4CC2(COC2CC4C(=O)COC4C(C)O2)C13C(=O)O` [Example 37, [1R-(1α,3aβ,4β,4aβ,7β,7aα,8aβ)]8a-[[1S,7R,9R]-2,8-Dioxa-9-methyl-4-oxo-cis-bicyclo[3.4.0]-non-7-yl-oxy-methyl]-4-formyl4,4a,5,6,7,7a,8,8a-octahydro-7-methyl-3-(1-methyl-ethyl)-1,4-methano-s-indacene-3a(1H)-carboxylic acid], the “MIC (minimum inhibiting concentration)” value with C. aibicans 2402E was found to be 0.060 µg/mL (≈ 0.123 µM); against C. albicans 1208E, 0.060 µg/mL (≈ 0.123 µM); in the assay on C. albicans 2005E, 0.001 µg/mL (≈ 0.00206 µM); with C. albicans 4711, 0.030 µg/mL (≈ 0.0617 µM); with C. tropicalis 2808E, 0.500 µg/mL (≈ 1.03 µM); in assay [1] it was 0.060 µg/mL (≈ 0.123 µM). The results for the “MIC (minimum inhibiting concentration)” value against C. glabrata 2375E, with C. glabrata 2376E and in the assay on C. neoformans 2867E were 4.00 µg/mL (≈ 8.22 µM), 6.00 µg/mL (≈ 12.3 µM) and not above 0.250 µg/mL, respectively.
On to `CC(C)C1=CC2CC3(C=O)C4CCC(C)C4CC2(COC2CC4=CCOC4C(C)O2)C13C(=O)O` [Example 43, [1R-(1α,3aβ,4β,4aβ,7β,7aα,8aβ)]8a-[(1S,7R,9R)-2,8-Dioxa-9-methyl-bicyclo[3,4,0]-non-4-ene-7-yl-oxymethyl]-4-formyl-4,4a,5,6,7,7a,8,8a-octahydro-7-methyl-3-(1-methylethyl)-1,4-methano-s-indacene-3a(1H)-carboxylic acid], for which the “MIC (minimum inhibiting concentration)” value against C. aibicans 2402E is 0.001 µg/mL (≈ 0.00212 µM); against C. albicans 1208E it was 0.001 µg/mL (≈ 0.00212 µM); against C. albicans 2005E, 0.001 µg/mL (≈ 0.00212 µM); against C. albicans 4711 it was 0.001 µg/mL (≈ 0.00212 µM); in the assay on C. tropicalis 2808E, 0.500 µg/mL (≈ 1.06 µM); in assay [1] it was less than 0.001 µg/mL. Further, the “MIC (minimum inhibiting concentration)” value with C. glabrata 2375E was determined as 4.00 µg/mL (≈ 8.5 µM); in the assay with C. glabrata 2376E, 4.00 µg/mL (≈ 8.5 µM); in the assay with C. neoformans 2867E it was 2.00 µg/mL (≈ 4.25 µM).
`COC1C(C)OC(OCC23CC4C(C)CCC4C4(C=O)CC2C=C(C(C)C)C43C(=O)O)C2SC12` [Example 51, [1R-(1α,3aβ,4β,4aβ,7β,7aα,8aβ)]8a-[(2,3-Epithio-4-O-methyl-2,3,6-trideoxy-β-D-mannopyranosyloxy)methyl]-4-formyl-4,4a,5,6,7,7a,8,8a-octahydro-7-methyl-3-(1-methylethyl)-1,4-methano-s-indacene-3a(1H)-carboxylic acid]: the “MIC (minimum inhibiting concentration)” value with C. aibicans 2402E is 0.120 µg/mL (≈ 0.245 µM); against C. albicans 1208E, 0.120 µg/mL (≈ 0.245 µM); in the assay on C. albicans 2005E, 0.030 µg/mL (≈ 0.0611 µM); in the assay on C. albicans 4711, 0.120 µg/mL (≈ 0.245 µM); against C. tropicalis 2808E, 0.500 µg/mL (≈ 1.02 µM); in assay [1], 0.008 µg/mL (≈ 0.0163 µM). Besides, the “MIC (minimum inhibiting concentration)” value is 16.00 µg/mL (≈ 32.6 µM) with C. glabrata 2375E, 16.00 µg/mL (≈ 32.6 µM) against C. glabrata 2376E and not above 125 µg/mL against C. neoformans 2867E.
